In patent US20140051679A1, “KINASE INHIBITORS AND METHOD OF TREATING CANCER WITH SAME” (UNIVERISTY HEALTH NETWORKS, priority 2011, published 2014):

How the values were obtained:
human TTK = target: T1, human TTK (Homo sapiens, UniProt P33981); assay: TTK inhibition assay (indirect ELISA); assay type: biochemical; conditions: GST-TTK 0.68 nM, 16 μM ATP; read-out: IC50 Ranges TTK
T1 construct: amino terminal GST fusion of full length human TTK; purchased Invitrogen
T1 sequence (P33981 1-857): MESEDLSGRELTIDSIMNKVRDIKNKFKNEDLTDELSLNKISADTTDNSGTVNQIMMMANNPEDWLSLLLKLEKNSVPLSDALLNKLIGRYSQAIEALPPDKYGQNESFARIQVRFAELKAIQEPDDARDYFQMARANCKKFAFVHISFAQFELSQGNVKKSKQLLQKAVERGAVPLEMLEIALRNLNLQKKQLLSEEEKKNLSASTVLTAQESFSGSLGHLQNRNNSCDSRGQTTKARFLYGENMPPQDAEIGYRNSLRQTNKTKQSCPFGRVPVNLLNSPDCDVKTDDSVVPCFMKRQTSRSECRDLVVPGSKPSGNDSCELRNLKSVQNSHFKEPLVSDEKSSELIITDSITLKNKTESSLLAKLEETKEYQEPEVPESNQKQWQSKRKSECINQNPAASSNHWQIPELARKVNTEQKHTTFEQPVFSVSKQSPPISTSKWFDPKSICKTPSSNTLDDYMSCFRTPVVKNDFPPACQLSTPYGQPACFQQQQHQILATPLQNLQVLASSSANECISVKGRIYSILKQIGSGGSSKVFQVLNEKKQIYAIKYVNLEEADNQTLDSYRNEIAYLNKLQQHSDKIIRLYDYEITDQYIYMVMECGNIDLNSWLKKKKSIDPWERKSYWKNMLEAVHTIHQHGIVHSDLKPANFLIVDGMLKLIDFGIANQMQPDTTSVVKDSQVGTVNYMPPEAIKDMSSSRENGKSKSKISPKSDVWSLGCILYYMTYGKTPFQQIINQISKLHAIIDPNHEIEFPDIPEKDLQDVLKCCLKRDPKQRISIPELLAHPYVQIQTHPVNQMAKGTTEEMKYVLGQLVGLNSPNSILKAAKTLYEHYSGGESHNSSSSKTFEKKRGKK

human PLK4 = target: T2, human PLK4 (Homo sapiens, UniProt O00444); assay: PLK4 inhibition assay (indirect ELISA); assay type: biochemical; conditions: GST-PLK4 4 nM, 15 μM ATP; read-out: IC50 Ranges PLK4
T2 construct: amino terminal GST fusion of residues 1-391 of human PLK4; made in house; host or cells: E. coli
T2 sequence (O00444 1-391): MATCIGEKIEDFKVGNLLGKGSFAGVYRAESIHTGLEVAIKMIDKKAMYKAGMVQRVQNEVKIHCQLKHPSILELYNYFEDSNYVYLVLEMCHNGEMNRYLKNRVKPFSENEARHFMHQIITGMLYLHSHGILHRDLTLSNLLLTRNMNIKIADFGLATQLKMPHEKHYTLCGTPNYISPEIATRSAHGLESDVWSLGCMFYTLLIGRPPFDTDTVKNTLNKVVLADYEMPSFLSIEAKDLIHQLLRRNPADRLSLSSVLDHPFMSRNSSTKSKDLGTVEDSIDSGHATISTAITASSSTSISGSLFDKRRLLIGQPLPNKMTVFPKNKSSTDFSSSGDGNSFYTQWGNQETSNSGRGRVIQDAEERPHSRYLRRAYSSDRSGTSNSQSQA
In short: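 Dephosphorylated GST-tagged human PLK4 (residues 1-391, E. coli), 4 nM, preincubated 15 min with compound, then reacted 30 min with 15 μM ATP on MBP-coated plates (50 mM HEPES pH 7.5, 10 mM MgCl2, 0.01% Brij 35). Phospho-MBP detected by antibody ELISA at 450 nm. Tested at 10 μM or 10-point titrations; IC50 from 4-parameter logistic fit.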

Aurora B = target: T3, Aurora B (Homo sapiens, UniProt Q96GD4); assay: Aurora B inhibition assay (Z-Lyte); assay type: biochemical; conditions: 28 nM Aurora B, 128 μM ATP; read-out: IC50 Ranges Aurora B
T3 construct: purchased Invitrogen PV3970
Experimental: Aurora B inhibition was determined using the Z-Lyte assay kit from Invitrogen. The assay was performed using the recommended manufacturer's instructions with 128 μM ATP and 28 nM Aurora B (Invitrogen cat #PV3970). The % inhibition values were determined according to the manufacturer's directions and IC50 values were obtained using a non-linear 4 point logistic curve fit (XLfit4, IDBS)

[1] = tested on: MDA-MB-231 breast cancer cells; assay: Cell growth inhibition, Sulforhodamine B assay, MDA-MB-231; assay type: cell-based; conditions: Homo sapiens, 120 h, 5 days culture, SRB assay, read-out: Cell Line GI50 Range MDA-MB-231
Experimental: (§1) Breast cancer cells (MDA-MB-231, MDA-MB-468), colon cancer cells (HCT116, HT29) and ovarian cancer cells (PA-1, OVCAR-3) were seeded (1000 to 4000 in 80 μl per well depending on the cell growth rate) into 96 well plates 24 hours before compound overlay. Compounds were prepared as 10 mM stock solutions in 100% DMSO which were diluted with DMEM (Dulbecco's Modified Eagle's Medium) cell growth Medium (Invitrogen, Burlington, ON, Canada) containing 10% FBS (Fetal Bovine Serum) to concentrations ranging from 50 nM to 250 μM. Aliquots (20 μl) from each concentration were overlaid to 80 μl of the pre-seeded cells in the 96 well plates to make final concentrations of 10 nM to 50 μM. The cells were cultured for 5 days before the Sulforhodamine B assay (SRB) was performed to determine the compound's cell growth inhibition activity.
(§2) Sulforhodamine B (purchased from Sigma, Oakville, ON, Canada) is a water-soluble dye that binds to the basic amino acids of the cellular proteins. Thus, colorimetric measurement of the bound dye provides an estimate of the total protein mass that is related to the cell number. the cells are fixed in situ by gently aspirating off the culture media and adding 50 μl ice cold 10% Trichloroacetic Acid (TCA) per well and incubate at 4° C. for 30-60 min, The plates are washed with water five times and allowed to air dry for 5 min. Addition of 50 μl 0.4% (w/v) SRB solution in 1% (v/v) acetic acid to each well and incubatation for 30 min at RT completes the staining reaction. Following staining, plates are washed four times with 1% acetic acid to remove unbound dye and then allowed to air dry for 5 min. The stain is solubilized with 100 μl of 10 mM Tris pH 10.5 per well. Absorbance is read at 570 nm.
(§3) The percentage (%) of relative growth inhibition was calculated by comparing to DMSO treated only cells (100%). […] The GI50 was calculated using GraphPad PRISM software (GraphPad Software, Inc., San Diego, Calif., USA).

[2] = tested on: MDA-MB-468 breast cancer cells; assay: Cell growth inhibition, Sulforhodamine B assay, MDA-MB-468; assay type: cell-based; conditions: Homo sapiens, 120 h, 5 days culture, SRB assay, read-out: Cell Line GI50 Range MDA-MB-468
[3] = tested on: HCT116 colon cancer cells; assay: Cell growth inhibition, Sulforhodamine B assay, HCT116; assay type: cell-based; conditions: Homo sapiens, HCT-116, 120 h, 5 days culture, SRB assay, read-out: Cell Line GI50 Range HCT116
HT29 colon cancer cells = assay: Cell growth inhibition, Sulforhodamine B assay, HT29; assay type: cell-based; conditions: Homo sapiens, HT-29, 120 h, 5 days culture, SRB assay, read-out: Cell Line GI50 Range HT29
[4] = tested on: PA-1 ovarian cancer cells; assay: Cell growth inhibition, Sulforhodamine B assay, PA-1; assay type: cell-based; conditions: 120 h, 5 days culture, SRB assay, read-out: Cell Line GI50 Range PA-1
Experimental: as §1, §2, §3

[5] = tested on: OVCAR-3 ovarian cancer cells; assay: Cell growth inhibition, Sulforhodamine B assay, OVCAR-3; assay type: cell-based; conditions: Homo sapiens, 120 h, 5 days culture, SRB assay, read-out: Cell Line GI50 Range OVCAR-3
[6] = tested on: Colon tumor initiating cells (TICs), 12 colon; assay: Colon tumor-initiating cell growth inhibition (Alamar Blue); assay type: cell-based; conditions: 216 h, 9 days, read-out: GI50 range 12 colon
[7] = tested on: Ovarian TICs, 2393A ovarian; assay: Ovarian tumor-initiating cell growth inhibition (Alamar Blue); assay type: cell-based; conditions: 144 h, 6 days, read-out: GI50 range 2393A ovarian
Source text: Materials and Methods: Non-tissue or tissure cultured treated T-75 flask and 96-well plates were purchased from VWR. Vitamin B-27 supplement, MEM NEAA (minimum essential medium non essential amino acids), sodium pyruvate, L-glutamine, N2 supplement, penicillin-streptomycin and fungizone/amphotericin B were obtained from Invitrogen. Lipid mixture, heparin and EGF were purchased from Sigma; bFGF from BD Biosciences. Colon tumor initiating cells (TICs) were routinely maintained using non-tissue cultured treated T-75 flasks in DMEM:F12 medium containing 0.2XB-27 supplement, 4 ug/ml heparin, 1XMEM NEAA, 1× sodium pyruvate, 1 mM glutamine, 10 pg/ul bFGF, 20 pg/ul EGF, 1×N2 supplement, lipid mixture, penicillin-streptomycin and fungizone/amphotericin B. Ovarian TICs were routinely maintained using tissue cultured treated T-75 flasks in DMEM:F12 medium containing 1XB-27 supplement, 4 ug/ml heparin, 20 pg/ul bFGF, 20 pg/ul EGF and penicillin-streptomycin.
Compounds described herein were dissolved in DMSO and further diluted in cell culture medium for GI50 determination. Colon TICs were trypsinized and seeded into non-tissue cultured treated 96-well plates with 4,000 cells/well. After 24 h, compound was added into the cell culture at different concentrations, and the final concentration of DMSO was adjusted to 0.1%. Cells were then cultured at 37° C. for 9 days. Ovarian TICs were trypsinized and seeded into tissue cultured treated 96-well plates with 1,000 cells/well. After 24 h, compound was added into the cell culture at different concentrations, and the final concentration of DMSO was adjusted to 0.1%. Cells were then cultured at 37° C. for 6 days. Cell viability was assessed by Alamar Blue assay: 10 ul of Alamar Blue was added into each well. After 4 hours incubation at 37° C., fluorescence was recorded at excitation 544 and emission 590. GI50 (Growth inhibition) was calculated using GraphPad Prism 4.0 software.

T3 sequence (Q96GD4 whole entry): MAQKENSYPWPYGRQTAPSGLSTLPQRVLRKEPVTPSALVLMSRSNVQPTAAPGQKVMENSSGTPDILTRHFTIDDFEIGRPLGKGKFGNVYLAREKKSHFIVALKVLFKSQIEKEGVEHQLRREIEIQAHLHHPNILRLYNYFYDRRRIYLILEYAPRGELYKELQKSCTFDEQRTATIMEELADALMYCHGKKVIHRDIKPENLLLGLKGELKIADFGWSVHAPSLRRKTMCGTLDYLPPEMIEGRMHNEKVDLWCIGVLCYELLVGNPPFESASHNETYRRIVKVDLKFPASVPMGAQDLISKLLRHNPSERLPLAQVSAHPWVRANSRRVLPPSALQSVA

Cc1ccccc1C(NC(=O)c1ccc2[nH]nc(-c3ccc(OC4CCN(C)CC4)cc3)c2c1)C1CC1 (stereo not drawn) [Example A132, N-(cyclopropyl(o-tolyl)methyl)-3-(4-((1-methylpiperidin-4-yl)oxy)phenyl)-1H-indazole-5-carboxamide]
≤ 5 µM: IC50 (human TTK) | IC50 (human PLK4) | IC50 (Aurora B) | GI50 [1] | GI50 [2] | GI50 [3] | GI50 (HT29 colon cancer cells) | GI50 [4] | GI50 [5] | GI50 [6] | GI50 [7]

CC(C)C(NC(=O)c1ccc2[nH]nc(-c3ccc(OC4CCN(C)CC4)cc3)c2c1)c1ccccc1Cl (stereo not drawn) [Example A144, N-(1-(2-chlorophenyl)-2-methylpropyl)-3-(4-((1-methylpiperidin-4-yl)oxy)phenyl)-1H-indazole-5-carboxamide]
≤ 5 µM: IC50 (human TTK) | IC50 (human PLK4) | IC50 (Aurora B) | GI50 [1] | GI50 [2] | GI50 [3] | GI50 (HT29 colon cancer cells) | GI50 [4] | GI50 [5] | GI50 [6] | GI50 [7]

COCCN1CCC(Oc2ccc(-c3n[nH]c4ccc(C(=O)N[C@H](c5cccs5)C5CC5)cc34)cc2)CC1 [Example A163, (S)—N-(cyclopropyl(thiophen-2-yl)methyl)-3-(4-((1-(2-methoxyethyl)piperidin-4-yl)oxy)phenyl)-1H-indazole-5-carboxamide]
≤ 5 µM: IC50 (human TTK) | IC50 (human PLK4) | IC50 (Aurora B) | GI50 [1] | GI50 [2] | GI50 [3] | GI50 (HT29 colon cancer cells) | GI50 [4] | GI50 [5] | GI50 [6] | GI50 [7]

Cc1ccccc1C(C(=O)Nc1ccc2[nH]nc(-c3ccc(OC4CCN(C)CC4)cc3)c2c1)N1CCCC1 (stereo not drawn) [Example A133, N-(3-(4-((1-methylpiperidin-4-yl)oxy)phenyl)-1H-indazol-5-yl)-2-(pyrrolidin-1-yl)-2-(o-tolyl)acetamide]
≤ 5 µM: IC50 (human TTK) | IC50 (human PLK4) | IC50 (Aurora B) | GI50 [1] | GI50 [2] | GI50 [3] | GI50 (HT29 colon cancer cells) | GI50 [4] | GI50 [5] | GI50 [6] | GI50 [7]

CN1CCC(Oc2ccc(-c3n[nH]c4ccc(C(=O)NC(c5ccccc5F)C5CC5)cc34)cc2)CC1 (stereo not drawn) [Example A136, N-(cyclopropyl(2-fluorophenyl)methyl)-3-(4-((1-methylpiperidin-4-yl)oxy)phenyl)-1H-indazole-5-carboxamide]
≤ 5 µM: IC50 (human TTK) | IC50 (human PLK4) | IC50 (Aurora B) | GI50 [1] | GI50 [2] | GI50 [3] | GI50 (HT29 colon cancer cells) | GI50 [4] | GI50 [5] | GI50 [6] | GI50 [7]

COCCN1CCC(Oc2ccc(-c3n[nH]c4ccc(C(=O)N[C@H](c5ccsc5)C5CC5)cc34)cc2)CC1 [Example A154]
≤ 5 µM: IC50 (human TTK) | IC50 (human PLK4) | IC50 (Aurora B) | GI50 [1] | GI50 [2] | GI50 [3] | GI50 (HT29 colon cancer cells) | GI50 [4] | GI50 [5] | GI50 [6] | GI50 [7]

COc1ccccc1C(NC(=O)c1ccc2[nH]nc(-c3ccc(OC4CCN(C)CC4)cc3)c2c1)C1CC1 (stereo not drawn) [Example A151, N-(cyclopropyl(2-methoxyphenyl)methyl)-3-(4-((1-methylpiperidin-4-yl)oxy)phenyl)-1H-indazole-5-carboxamide]
≤ 5 µM: IC50 (human TTK) | IC50 (human PLK4) | IC50 (Aurora B) | GI50 [1] | GI50 [2] | GI50 [3] | GI50 (HT29 colon cancer cells) | GI50 [4] | GI50 [5] | GI50 [6] | GI50 [7]

CN1CCC(Oc2ccc(-c3n[nH]c4ccc(C(=O)NC(c5cccs5)C5CC5)cc34)cc2)CC1 (stereo not drawn) [Example A147]
≤ 5 µM: IC50 (human TTK) | IC50 (human PLK4) | IC50 (Aurora B) | GI50 [1] | GI50 [2] | GI50 [3] | GI50 (HT29 colon cancer cells) | GI50 [4] | GI50 [5] | GI50 [6] | GI50 [7]

O=CN1CCC(Oc2ccc(-c3n[nH]c4ccc(NC(=O)C(c5ccccn5)C5CCCC5)cc34)cc2)CC1 (stereo not drawn) [Example A176, 2-cyclopentyl-N-(3-(4-((1-formylpiperidin-4-yl)oxy)phenyl)-1H-indazol-5-yl)-2-(pyridin-2-yl)acetamide]
≤ 5 µM: IC50 (human TTK) | IC50 (human PLK4) | IC50 (Aurora B) | GI50 [1] | GI50 [2] | GI50 [3] | GI50 (HT29 colon cancer cells) | GI50 [4] | GI50 [5] | GI50 [6] | GI50 [7]
